Data as given in patent EP4799620A1, “ORAL PHARMACEUTICAL FORM FOR BIPHASIC RELEASE, COMPOSED OF A MULTIP[…], PROCESS FOR PREPARING SAME AND […] USE OF ORAL FORM” (Prati, Donaduzzi & Cia LTDA, priority 2023, dated 2025).
Where two headings read alike, the source gives them in different places.

How the values were obtained:
[1] = cited from earlier work
[2] = test system: patients with secondary insomnia; assay: Randomized, controlled, cross-over clinical trial: actigraphy analysis; assay type: in vivo
Protocol: (§1) Based on the foregoing, a double-blind clinical trial was conducted to evaluate the impact of the medication on sleep quality and total sleep time, as well as to quantify the reduction in sleep latency in patients diagnosed with comorbid insomnia, through actigraphy and assessment scales.
(§2) The objective of the clinical trial was to evaluate the impact of the medication on sleep quality and total sleep time, as well as to quantify the reduction in sleep latency in patients diagnosed with comorbid insomnia, through actigraphy and assessment scales. The study was conducted with 30 patients.
Of the 29 patients, 24 correctly completed the proposed actigraphy usage period. TABLE 2: ACTIGRAPHY ANALYSIS RESULTS.

[3] = 50 mg/day; double-blind controlled study; cited from earlier work
postmenopausal women = settings: trazodone 50-100 mg/day; cited from earlier work
healthy volunteers = settings: daily doses of 50 and 100 mg; cited from earlier work
[4] = test system: patients with Alzheimer's disease; settings: 50 mg/day; cited from earlier work
pregnant women = settings: 50 mg/day; 67 pregnant women; third trimester of pregnancy; cited from earlier work
[5] = test system: patients with secondary insomnia; assay: Randomized, controlled, cross-over clinical trial: questionnaires and subjective sleep perception; assay type: in vivo; settings: for Sleep latency / Total sleep time: subjective
Protocol: as §1, §2
TABLE 1: RESULTS OF THE ANALYSIS OF THE QUESTIONNAIRES AND OF THE SUBJECTIVE SLEEP PERCEPTION.

[6] = in water; cited from earlier work

SMILES: O=c1n(CCCN2CCN(c3cccc(Cl)c3)CC2)nc2ccccn12 [Trazodone]
- solubility ([1]; above its pKa, neutral and basic conditions): very low
- solubility ([1]; acidic medium, pH of the medium below its pKa): highly soluble
- Awakenings ([2]; 50mg, Actigraphy 1): 12.97±3.85@
- Sleep latency ([2]; 50mg, Actigraphy 1): 6.13 ± 5.56 min
- Total sleep time ([2]; 50mg, Actigraphy 1): 50mg 461.80±106.60 min.
- WASO ([2]; 50mg, Actigraphy 1): 84.20 ± 26.09 min
- Awakenings ([2]; 50mg, Actigraphy 2): 10.68±3.44
- Sleep latency ([2]; 50mg, Actigraphy 2): 7.16 ± 7.48 min
- Total sleep time ([2]; 50mg, Actigraphy 2): 479.90 ± 95.25 min
- WASO ([2]; 50mg, Actigraphy 2): 75.38 ± 29.34 min
- Awakenings ([2]; 50mg, Actigraphy 3): 11.35±3.59@
- Sleep latency ([2]; 50mg, Actigraphy 3): 4.40 ± 4.40 min
- Total sleep time ([2]; 50mg, Actigraphy 3): 476.00 ± 91.94 min
- WASO ([2]; 50mg, Actigraphy 3): 73 ± 26.45 min
- Awakenings ([2]; 75mg, Actigraphy 1): 12.64±2.57
- Sleep latency ([2]; 75mg, Actigraphy 1): 6.77 ± 5.96 min
- Total sleep time ([2]; 75mg, Actigraphy 1): 75 mg 486.00±151.70 min.
- WASO ([2]; 75mg, Actigraphy 1): 82.33 ± 20.21 min
- Awakenings ([2]; 75mg, Actigraphy 2): 11.37±1.56
- Sleep latency ([2]; 75mg, Actigraphy 2): 5.28 ± 4.71 min
- Total sleep time ([2]; 75mg, Actigraphy 2): 514.10 ± 166.50 min
- WASO ([2]; 75mg, Actigraphy 2): 88.29 ± 20.62 min
- Awakenings ([2]; 75mg, Actigraphy 3): 11.71±2.54£2
- Sleep latency ([2]; 75mg, Actigraphy 3): 7.33 ± 7.90 min
- Total sleep time ([2]; 75mg, Actigraphy 3): 498.60 ± 126.30 min
- WASO ([2]; 75mg, Actigraphy 3): 83.44 ± 32.30 min
- Awakenings ([2]; no dose stated, Actigraphy 1): 12.84±3.37@
- Sleep latency ([2]; no dose stated, Actigraphy 1): 6.37 ± 5.60 min
- Total sleep time ([2]; no dose stated, Actigraphy 1): 470.90 ± 122.70 min
- WASO ([2]; no dose stated, Actigraphy 1): 84.20 ± 26.09 min
- Awakenings ([2]; no dose stated, Actigraphy 2): 10.92±2.89
- Sleep latency ([2]; no dose stated, Actigraphy 2): 6.47 ± 6.51 min
- Total sleep time ([2]; no dose stated, Actigraphy 2): 491.90 ± 121.50 min
- Awakenings ([2]; no dose stated, Actigraphy 3): 11.49±3.186@#
- Sleep latency ([2]; no dose stated, Actigraphy 3): 5.50 ± 5.97 min
- Total sleep time ([2]; no dose stated, Actigraphy 3): 484.50 ± 104.00 min
- WASO ([2]; no dose stated, Actigraphy 3): 73.00 ± 26.45 min
- maintaining sleep [3]: effective
- sleep quality and sexual dysfunction (postmenopausal women): improved
- slow waves during sleep (healthy volunteers): increased
- treatment of insomnia [4]: safe and effective
- Sedative effects for the treatment of insomnia (pregnant women): efficacy
- Hamilton Depression Scale ([5]; 50 mg, Consultation 1): 16.31±8.60@#
- Insomnia Severity Scale ([5]; 50 mg, Consultation 1): 19.88±4.04@#
- Nights with awakenings/week ([5]; 50 mg, Consultation 1): 3.00±0.00@
- Pittsburgh Sleep Quality Questionnaire ([5]; 50 mg, Consultation 1): 14.13±3.11@#
- Hamilton Depression Scale ([5]; 50 mg, Consultation 2): 11.88±6.06@
- Insomnia Severity Scale ([5]; 50 mg, Consultation 2): 17.69±6.18&*
- Nights with awakenings/week ([5]; 50 mg, Consultation 2): 2.40±1.05
- Pittsburgh Sleep Quality Questionnaire ([5]; 50 mg, Consultation 2): 11.19±2.90
- Hamilton Depression Scale ([5]; 50 mg, Consultation 3): 11.13±6.98
- Insomnia Severity Scale ([5]; 50 mg, Consultation 3): 11.14±7.24#&
- Nights with awakenings/week ([5]; 50 mg, Consultation 3): 2.00±1.17
- Hamilton Depression Scale ([5]; 50 mg, Consultation 4): 7,875±4.28
- Insomnia Severity Scale ([5]; 50 mg, Consultation 4): 7.50±4.48@#
- Nights with awakenings/week ([5]; 50 mg, Consultation 4): 1.06±1.39@#
- Pittsburgh Sleep Quality Questionnaire ([5]; 50 mg, Consultation 4): 9.81±3.50@
- Hamilton Depression Scale ([5]; 75 mg, Consultation 1): 18.31±11.41@
- Insomnia Severity Scale ([5]; 75 mg, Consultation 1): 21.08±3.84@
- Nights with awakenings/week ([5]; 75 mg, Consultation 1): 2.84±0.55
- Pittsburgh Sleep Quality Questionnaire ([5]; 75 mg, Consultation 1): 13.54±3.43@
- Hamilton Depression Scale ([5]; 75 mg, Consultation 2): 14.85±6.65
- Insomnia Severity Scale ([5]; 75 mg, Consultation 2): 19.75±3.84
- Nights with awakenings/week ([5]; 75 mg, Consultation 2): 3.00±0.00
- Pittsburgh Sleep Quality Questionnaire ([5]; 75 mg, Consultation 2): 12.77±2.20
- Hamilton Depression Scale ([5]; 75 mg, Consultation 3): 12.5±6.81
- Insomnia Severity Scale ([5]; 75 mg, Consultation 3): 16.69±8.34
- Nights with awakenings/week ([5]; 75 mg, Consultation 3): 2.58±0.90
- Pittsburgh Sleep Quality Questionnaire ([5]; 75 mg, Consultation 3): 13.58±3.08
- Hamilton Depression Scale ([5]; 75 mg, Consultation 4): 8.08±3.57@#
- Insomnia Severity Scale ([5]; 75 mg, Consultation 4): 7,33±5,61@#
- Nights with awakenings/week ([5]; 75 mg, Consultation 4): 1.38±1.55
- Pittsburgh Sleep Quality Questionnaire ([5]; 75 mg, Consultation 4): 9.91±3.26@#
- Hamilton Depression Scale ([5]; no dose stated, Consultation 1): 17,21±9,82@#
- Insomnia Severity Scale ([5]; no dose stated, Consultation 1): 20.41±3.93@#
- Nights with awakenings/week ([5]; no dose stated, Consultation 1): 2.93±0.37@
- Pittsburgh Sleep Quality Questionnaire ([5]; no dose stated, Consultation 1): 13.86±3.21@
- Hamilton Depression Scale ([5]; no dose stated, Consultation 2): 13.21±6.40&*
- Insomnia Severity Scale ([5]; no dose stated, Consultation 2): 18.57±5.32&*
- Nights with awakenings/week ([5]; no dose stated, Consultation 2): 2.67±0.82
- Pittsburgh Sleep Quality Questionnaire ([5]; no dose stated, Consultation 2): 11.9±2.69
- Hamilton Depression Scale ([5]; no dose stated, Consultation 3): 11,74±6,80#&
- Insomnia Severity Scale ([5]; no dose stated, Consultation 3): 13.81±8.14#&
- Nights with awakenings/week ([5]; no dose stated, Consultation 3): 2.26±1.08
- Pittsburgh Sleep Quality Questionnaire ([5]; no dose stated, Consultation 3): 12.59±3.68
- Hamilton Depression Scale ([5]; no dose stated, Consultation 4): 7.96±3.93@*
- Insomnia Severity Scale ([5]; no dose stated, Consultation 4): 7.42±4.90@#
- Nights with awakenings/week ([5]; no dose stated, Consultation 4): 1.20±1.45@#
- Pittsburgh Sleep Quality Questionnaire ([5]; no dose stated, Consultation 4): 9.85±3.34@#
- Sleep latency ([5]; 50mg, Consultation 1): 50.5 ± 40.46 min
- Total sleep time ([5]; 50mg, Consultation 1): 273.80 ± 95.42 min
- Sleep latency ([5]; 50mg, Consultation 2): 37.19 ± 20.00 min
- Total sleep time ([5]; 50mg, Consultation 2): 307.50 ± 75.50 min
- Sleep latency ([5]; 50mg, Consultation 3): 42,56±47,20 min.
- Total sleep time ([5]; 50mg, Consultation 3): 348.80 ± 103.30 min
- Sleep latency ([5]; 50mg, Consultation 4): 26.31 ± 25.20 min
- Sleep latency ([5]; 75mg, Consultation 1): 93.08 ± 99.11 min
- Total sleep time ([5]; 75mg, Consultation 1): 281.50 ± 128.20 min
- Sleep latency ([5]; 75mg, Consultation 2): 69.69 ± 43.86 min
- Total sleep time ([5]; 75mg, Consultation 2): 272.30 ± 87.00 min
- Sleep latency ([5]; 75mg, Consultation 3): 63.08 ± 53.17 min
- Total sleep time ([5]; 75mg, Consultation 3): 290.80 ± 72.85 min
- Sleep latency ([5]; 75mg, Consultation 4): 33.85 ± 25.67 min
- Total sleep time ([5]; 75mg, Consultation 4): 378.50 ± 89.61 min
- Sleep latency ([5]; no dose stated, Consultation 1): 69,59±74,51@ min.
- Total sleep time ([5]; no dose stated, Consultation 1): 277.20±109.20@ min.
- Sleep latency ([5]; no dose stated, Consultation 2): 51.76 ± 36.18 min
- Total sleep time ([5]; no dose stated, Consultation 2): 291.70 ± 81.33 min
- Sleep latency ([5]; no dose stated, Consultation 3): 51.76 ± 50.13 min
- Total sleep time ([5]; no dose stated, Consultation 3): 322.80 ± 94.07 min
- Sleep latency ([5]; no dose stated, Consultation 4): 29,69±25,24@# min.
- Total sleep time ([5]; no dose stated, Consultation 4): 341.80±110.00@ min.
- pKa [6]: 6.74

SMILES: CN1CCN(C(=O)OC2c3nccnc3C(=O)N2c2ccc(Cl)cn2)CC1 (stereo not drawn) [zopiclone]
- sleep quality and sexual dysfunction (postmenopausal women): improved
